Measured values reported in patent US12077503B2, “Substituted cyclic amides and their use as herbicides” (FMC CORPORATION, priority 2015, dated 2024).

Columns and labels:
Type in all cases: in vivo
[1] = system: barnyardgrass (Echinochloa crus-galli); assay: Test A postemergence; settings: Echinochloa crus-galli, post-emergence, 240 h, Postemergence
Outline: (§1)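 Preemergence directed soil spray on seeded pots, or postemergence application to plants 2–10 cm, one- to two-leaf. Solvent mixture non-phytotoxic, with surfactant. Scored ~10 d later, visually, 0–100 vs untreated.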

[2] = system: pigweed (Amaranthus retroflexus); assay: Test A postemergence; settings: Amaranthus retroflexus, post-emergence, 240 h, Postemergence
Outline: as §1

[3] = system: Kochia (Kochia scoparia); assay: Test A postemergence; settings: Bassia scoparia, post-emergence, 240 h, Postemergence
Outline: as §1

[4] = system: Galium (catchweed bedstraw, Galium aparine); assay: Test A postemergence; settings: Galium, post-emergence, 240 h, Postemergence
Outline: as §1

[5] = system: ragweed (common ragweed, Ambrosia elatior); assay: Test A postemergence; settings: Ambrosia artemisiifolia, post-emergence, 240 h, Postemergence
Outline: as §1

[6] = system: blackgrass (Alopecurus myosuroides); assay: Test A postemergence; settings: Alopecurus myosuroides, post-emergence, 240 h, Postemergence
Outline: as §1

[7] = system: corn (Zea mays); assay: Test A postemergence; settings: Zea mays, post-emergence, 240 h, Postemergence
Outline: as §1

[8] = system: giant foxtail (Setaria faberii); assay: Test A postemergence; settings: Setaria faberi, post-emergence, 240 h, Postemergence
Outline: as §1

[9] = system: wheat (Triticum aestivum); assay: Test A postemergence; settings: Triticum aestivum, post-emergence, 240 h, Postemergence
Outline: as §1

[10] = system: barnyardgrass (Echinochloa crus-galli); assay: Test A preemergence; settings: Echinochloa crus-galli, pre-emergence, 240 h, 0 to 100 scale (0 no effect, 100 complete control), read-out: Plant response rating, Barnyardgrass
Outline: as §1

[11] = system: pigweed (Amaranthus retroflexus); assay: Test A preemergence; settings: Amaranthus retroflexus, pre-emergence, 240 h, 0 to 100 scale (0 no effect, 100 complete control), read-out: Plant response rating, Pigweed
[12] = system: Kochia (Kochia scoparia); assay: Test A preemergence; settings: Bassia scoparia, pre-emergence, 240 h, 0 to 100 scale (0 no effect, 100 complete control), read-out: Plant response rating, Kochia
Outline: as §1

[13] = system: ragweed (common ragweed, Ambrosia elatior); assay: Test A preemergence; settings: Ambrosia artemisiifolia, pre-emergence, 240 h, 0 to 100 scale (0 no effect, 100 complete control), read-out: Plant response rating, Ragweed
Outline: as §1

[14] = system: ryegrass, Italian (Italian ryegrass, Lolium multiflorum); assay: Test A preemergence; settings: Lolium multiflorum, pre-emergence, 240 h, 0 to 100 scale (0 no effect, 100 complete control), read-out: Plant response rating, Ryegrass, Italian
Outline: as §1

[15] = system: giant foxtail (Setaria faberii); assay: Test A preemergence; settings: Setaria faberi, pre-emergence, 240 h, 0 to 100 scale (0 no effect, 100 complete control), read-out: Plant response rating, Foxtail, Giant
Outline: as §1

Question: `O=C1NC[C@H](c2cc(C(F)(F)F)ccn2)[C@H]1C(=O)Nc1cccc(F)c1F` (racemic) [Compound 1376] was tested. Which pest or weed control at 125 g/ha ([1]; 125 g ai/ha, visual rating about 10 d after treatment, read-out: Barnyardgrass plant response rating (0 to 100 scale, 0 no effect, 100 complete control)) did it give?
Answer: Its pest or weed control at 125 g/ha is 90%.

Question: And the pest or weed control at 500 g/ha ([1]; 500 g ai/ha, visual injury, 0 to 100 scale (0 no effect, 100 complete control), approx. 10 d, read-out: Plant response rating, Barnyardgrass)?
Answer: Its pest or weed control at 500 g/ha is 90%.

Question: And the pest or weed control at 125 g/ha ([2]; 125 g ai/ha, visual rating about 10 d after treatment, read-out: Pigweed plant response rating (0 to 100 scale))?
Answer: Its pest or weed control at 125 g/ha is 0%.

Question: And the pest or weed control at 500 g/ha ([2]; 500 g ai/ha, visual injury, 0 to 100 scale (0 no effect, 100 complete control), approx. 10 d, read-out: Plant response rating, Pigweed)?
Answer: Its pest or weed control at 500 g/ha is 20%.

Question: What about the pest or weed control at 125 g/ha ([3]; 125 g ai/ha, visual rating about 10 d after treatment, read-out: Kochia plant response rating (0 to 100 scale)) of the same compound?
Answer: The pest or weed control at 125 g/ha was 0%.

Question: And the pest or weed control at 500 g/ha ([3]; 500 g ai/ha, visual injury, 0 to 100 scale (0 no effect, 100 complete control), approx. 10 d, read-out: Plant response rating, Kochia)?
Answer: The pest or weed control at 500 g/ha was 20%.

Question: What about the pest or weed control at 125 g/ha ([4]; 125 g ai/ha, visual rating about 10 d after treatment, read-out: Galium plant response rating (0 to 100 scale)) of the same compound?
Answer: The pest or weed control at 125 g/ha was 0%.

Question: What about the pest or weed control at 500 g/ha ([4]; 500 g ai/ha, visual injury, 0 to 100 scale (0 no effect, 100 complete control), approx. 10 d, read-out: Plant response rating, Galium) of the same compound?
Answer: Its pest or weed control at 500 g/ha is 30%.

Question: What about the pest or weed control at 125 g/ha ([5]; 125 g ai/ha, visual rating about 10 d after treatment, read-out: Ragweed plant response rating (0 to 100 scale)) of the same compound?
Answer: The pest or weed control at 125 g/ha was 0%.

Question: And the pest or weed control at 500 g/ha ([5]; 500 g ai/ha, visual injury, 0 to 100 scale (0 no effect, 100 complete control), approx. 10 d, read-out: Plant response rating, Ragweed)?
Answer: Its pest or weed control at 500 g/ha is 0%.

Question: And the pest or weed control at 125 g/ha ([6]; 125 g ai/ha, visual rating about 10 d after treatment, read-out: Blackgrass plant response rating (0 to 100 scale))?
Answer: Its pest or weed control at 125 g/ha is 20%.

Question: And the pest or weed control at 500 g/ha ([6]; 500 g ai/ha, visual injury, 0 to 100 scale (0 no effect, 100 complete control), approx. 10 d, read-out: Plant response rating, Blackgrass)?
Answer: The pest or weed control at 500 g/ha was 70%.

Question: And the plant injury at 125 g/ha ([7]; 125 g ai/ha, visual rating about 10 d after treatment, read-out: Corn plant response rating (0 to 100 scale))?
Answer: Its plant injury at 125 g/ha is 0%.

Question: What about the Corn plant response rating (crop injury, 0 = no effect, 100 = complete kill) at 500 g/ha ([7]; 500 g ai/ha, visual injury, 0 to 100 scale (0 no effect, 100 complete control), approx. 10 d) of the same compound?
Answer: Its Corn plant response rating (crop injury, 0 = no effect, 100 = complete kill) at 500 g/ha is 30%.

Question: What about the pest or weed control at 125 g/ha ([8]; 125 g ai/ha, visual rating about 10 d after treatment, read-out: Foxtail, Giant plant response rating (0 to 100 scale)) of the same compound?
Answer: Its pest or weed control at 125 g/ha is 80%.

Question: What about the pest or weed control at 500 g/ha ([8]; 500 g ai/ha, visual injury, 0 to 100 scale (0 no effect, 100 complete control), approx. 10 d, read-out: Plant response rating, Foxtail, Giant) of the same compound?
Answer: The pest or weed control at 500 g/ha was 80%.

Question: What about the plant injury at 125 g/ha ([9]; 125 g ai/ha, visual rating about 10 d after treatment, read-out: Wheat plant response rating (0 to 100 scale)) of the same compound?
Answer: Its plant injury at 125 g/ha is 0%.

Question: And the plant injury at 500 g/ha ([9]; 500 g ai/ha, visual injury, 0 to 100 scale (0 no effect, 100 complete control), approx. 10 d, read-out: Plant response rating, Wheat)?
Answer: The plant injury at 500 g/ha was 60%.

Question: What about the pest or weed control at 500 g/ha ([10]; 500 g ai/ha, preemergence) of the same compound?
Answer: The pest or weed control at 500 g/ha was 100%.

Question: And the pest or weed control at 125 g/ha ([10]; Preemergence, 125 g ai/ha)?
Answer: The pest or weed control at 125 g/ha was 90%.

Question: What about the pest or weed control at 500 g/ha ([11]; 500 g ai/ha, preemergence) of the same compound?
Answer: Its pest or weed control at 500 g/ha is 0%.

Question: And the pest or weed control at 125 g/ha ([11]; Preemergence, 125 g ai/ha)?
Answer: Its pest or weed control at 125 g/ha is 0%.

Question: What about the pest or weed control at 500 g/ha ([12]; 500 g ai/ha, preemergence) of the same compound?
Answer: The pest or weed control at 500 g/ha was 0%.

Question: And the pest or weed control at 125 g/ha ([12]; Preemergence, 125 g ai/ha)?
Answer: Its pest or weed control at 125 g/ha is 0%.

Question: What about the pest or weed control at 500 g/ha ([13]; 500 g ai/ha, preemergence) of the same compound?
Answer: The pest or weed control at 500 g/ha was 0%.

Question: What about the pest or weed control at 125 g/ha ([13]; Preemergence, 125 g ai/ha) of the same compound?
Answer: Its pest or weed control at 125 g/ha is 0%.

Question: And the pest or weed control at 500 g/ha ([14]; 500 g ai/ha, preemergence)?
Answer: The pest or weed control at 500 g/ha was 70%.

Question: What about the pest or weed control at 125 g/ha ([14]; Preemergence, 125 g ai/ha) of the same compound?
Answer: Its pest or weed control at 125 g/ha is 20%.

Question: And the pest or weed control at 500 g/ha ([15]; 500 g ai/ha, preemergence)?
Answer: Its pest or weed control at 500 g/ha is 100%.

Question: And the pest or weed control at 125 g/ha ([15]; Preemergence, 125 g ai/ha)?
Answer: Its pest or weed control at 125 g/ha is 90%.
